Assay [1] has as its system hippocampal and DRG axons. Nature of the assay: Axonal elastic modulus by AFM nano-indentation (modified Hertz model). The assay is classed as cell-based, rat.
Experimental: (§1) To minimize remodeling and maintain the parallel organization of the axons in the cultures, DRG neurons were cultured at a density four-times lower than hippocampal neurons and were tested within 7-10 days in culture, whereas hippocampal axons were tested after 14-18 days in culture.
Simultaneous compression and live imaging of single axons were performed on a Bioscope AFM mounted on an inverted optical microscope using a 100× objective (1.45 NA) and 1K charge-coupled device camera. Two different compression experiments were performed. In the first, a 20-mm polystyrene bead was fixed, see Reference [8], to the tip of silicon nitride probes with a nominal spring constant of k=0.01 N/m and used to compress axons with controlled force ranging from 0.1 nN≤F≤4 nN for different time periods. In the second, tipless n-type silicon probes with nominal spring constant of k=0.03 N/m were used to apply constant force to axons. […]
Modeling the underlying glass plane as a sphere with an infinite radius, then the term accounting for the deformation induced by the plane is negligible. Using the method of Reference [13] the δBead-Cylinder can be calculated using Equation (2) where γ is the Poisson ratio of the axon or the bead, E is the Young's modulus of the material, F is the total force applied, e is the eccentricity of the ellipse of contact, and K and
Assay [2] concerns DRG and hippocampal axons. Nature of the assay: Immunocytochemistry: distribution of cytosolic components in axons with impaired transport. Type of assay: cell-based, rat.
Experimental: as §1
Immunocytochemistry was performed as described in Reference [8] with mouse anti-tubulin, rabbit anti neurofilament, rabbit polyclonal anti-Tom20 (mitochondrial preprotein translocases of the outer membrane FL-145); and Alexa Fluor™ 488 conjugated phalloidin. The secondary antibodies used were Rhodamine Red antimouse IgG and Alexa Fluor™ 647 anti-rabbit IgG. Samples were imaged using a laser scanning confocal microscope with a 60× PlanApo oilimmersion objective on an inverted microscope.
To investigate the reason for the higher resistance of DRG axons to compression and to vinblastine effects, the inventors investigated the composition and distribution of cytosolic components in axons with impaired transport. […] The inventors analyzed the distribution of mitochondria, actin, neurofilament, and tubulin after blockade of axonal transport.
Where [3] appears, read: 1 hour treatment, FIG. 4C insert.
Where [4] appears, read: increasing vinblastine concentrations, 1 hour.
The mark [5] stands for this setting: vinblastine 5 nM or 500 nM for 1 hour, fixed, AFM.
Setting [6] is: increasing vinblastine concentration.

On to vinblastine sulfate salt, for which the “vinblastine concentration at which the volume of the non-FAS segment decreased” value in the assay on hippocampal axons (setting [3]) is on record as 5 nM; in the assay with DRG axons (setting [3]), 500 nM. Moreover, the “volume of single FAS” value is given as “did not significantly change” in the assay with hippocampal axons (setting [4]) and “increased with increasing vinblastine concentrations” in the assay on DRG axons (setting [4]). In addition, the “number and size of FAS (focal axonal swelling)” value with hippocampal axons (setting [5]) and with DRG axons (setting [5]) was “increased with increasing vinblastine concentrations” each time. Besides, the “average elastic modulus at 30% of indentation (EM30%)” value in assay [1] (5 nM vinblastine, p<0.001) is “significantly decreased”. The “slope of the elastic modulus curve as a function of percentage indentation” value in assay [1] (setting [6]) is on record as “decreased proportionally with increasing vinblastine concentration”. In addition, the “tubulin and neurofilament aggregation at FAS” value in assay [2] (setting [6]) was “proportional increase”. Also, the distribution of actin result in assay [2] (vinblastine-treated axons) is given as “concentrated between FAS”. For the same substance, in assay [2] (vinblastine-treated axons), the distribution of mitochondria result is “changed from uniform to a discontinuous punctate pattern”. In addition, the neurofilaments and microtubules result in assay [2] (vinblastine-treated axons) is “collapsed and accumulated at FAS”.

For the origin of these results see US11293001B2, “Microfluidic cell culture systems” (9493662 Canada Inc., priority 2013, dated 2022).
